ChEMBL document CHEMBL3885881, “DrugMatrix”

Species on record: Rattus norvegicus
Assay: DrugMatrix - Regimen: Daily Repeat
Assay type: toxicity, organism-based, Sprague-Dawley
Parameters: regimen Daily Repeat, gender Male, age 6-8 weeks
Settings: in vivo, po, route oral GAVAGE, vehicle .5 % CMC; for ABSOLUTE BASOPHIL / ABSOLUTE EOSINOPHIL / ABSOLUTE LYMPHOCYTE / ABSOLUTE MONOCYTE / ABSOLUTE SEGMENTED NEUTROPHIL / BASOPHIL / EOSINOPHIL / ERYTHROCYTE COUNT / HEMATOCRIT / HEMOGLOBIN / LEUKOCYTE COUNT / LYMPHOCYTE / MEAN CORPUSCULAR HEMOGLOBIN / MEAN CORPUSCULAR HEMOGLOBIN CONCENTRATION / MEAN CORPUSCULAR VOLUME / MONOCYTE / NEUTROPHIL / NUCLEATED RED BLOOD CELLS / PLATELET COUNT: tissue Blood; for ALANINE AMINOTRANSFERASE / ALBUMIN / ALKALINE PHOSPHATASE / ASPARTATE AMINOTRANSFERASE / BLOOD UREA NITROGEN / CARBON DIOXIDE / CHLORIDE / CHOLESTEROL / CREATINE PHOSPHOKINASE / CREATININE / GLUCOSE / LACTATE DEHYDROGENASE / LIPASE / PHOSPHORUS / POTASSIUM / SODIUM / TOTAL BILIRUBIN / TOTAL PROTEIN / URIC ACID: tissue Plasma
[1] = 12 mg/kg, 72 h, dose level Low, time 3 day
[2] = 12 mg/kg, 120 h, dose level Low, time 5 day
[3] = 0 mg/kg, 72 h, dose level Control, time 3 day
[4] = 0 mg/kg, 120 h, dose level Control, time 5 day

Compound: CC(=O)O[C@]1(C(C)=O)CC[C@H]2[C@@H]3C=C(C)C4=CC(=O)CC[C@]4(C)[C@H]3CC[C@@]21C [MEGESTROL ACETATE]
- ABSOLUTE BASOPHIL [1]: 0 CELLS/uL
- ABSOLUTE EOSINOPHIL [1]: 84.67 CELLS/uL
- ABSOLUTE LYMPHOCYTE [1]: 11039.33 CELLS/uL
- ABSOLUTE MONOCYTE [1]: 40 CELLS/uL
- ABSOLUTE SEGMENTED NEUTROPHIL [1]: 1136 CELLS/uL
- BASOPHIL [1]: 0%
- EOSINOPHIL [1]: 0.67%
- ERYTHROCYTE COUNT [1]: 5.83 x10E6/uL
- HEMATOCRIT [1]: 37.03%
- HEMOGLOBIN [1]: 13.83 G/DL
- LEUKOCYTE COUNT [1]: 12.3 x10E3/uL
- LYMPHOCYTE [1]: 89.67%
- MEAN CORPUSCULAR HEMOGLOBIN [1]: 23.77 pg
- MEAN CORPUSCULAR HEMOGLOBIN CONCENTRATION [1]: 37.37 G/DL
- MEAN CORPUSCULAR VOLUME [1]: 63.5 fL
- MONOCYTE [1]: 0.33%
- NEUTROPHIL [1]: 9.33%
- NUCLEATED RED BLOOD CELLS [1]: 0 /100WBC
- PLATELET COUNT [1]: 1299.33 x10E3/uL
- ALANINE AMINOTRANSFERASE [1]: 52 u/L
- ALBUMIN [1]: 4.43 G/DL
- ALKALINE PHOSPHATASE [1]: 394.33 u/L
- ASPARTATE AMINOTRANSFERASE [1]: 80.67 u/L
- BLOOD UREA NITROGEN [1]: 16.33 mg/dL
- CARBON DIOXIDE [1]: 25.33 mmol/L
- CHLORIDE [1]: 103.67 MEQ/L
- CHOLESTEROL [1]: 66.33 mg/dL
- CREATINE PHOSPHOKINASE [1]: 195 u/L
- CREATININE [1]: 0.25 mg/dL
- GLUCOSE [1]: 179.67 mg/dL
- LACTATE DEHYDROGENASE [1]: 177.33 u/L
- LIPASE [1]: 8 u/L
- PHOSPHORUS [1]: 13.6 mg/dL
- POTASSIUM [1]: 6.09 MEQ/L
- SODIUM [1]: 146.33 MEQ/L
- TOTAL BILIRUBIN [1]: 0.27 mg/dL
- TOTAL PROTEIN [1]: 6.43 G/DL
- URIC ACID [1]: 1.73 mg/dL
- ABSOLUTE BASOPHIL [2]: 0 CELLS/uL
- ABSOLUTE EOSINOPHIL [2]: 115.33 CELLS/uL
- ABSOLUTE LYMPHOCYTE [2]: 7823.33 CELLS/uL
- ABSOLUTE MONOCYTE [2]: 0 CELLS/uL
- ABSOLUTE SEGMENTED NEUTROPHIL [2]: 461.33 CELLS/uL
- BASOPHIL [2]: 0%
- EOSINOPHIL [2]: 1.33%
- ERYTHROCYTE COUNT [2]: 5.55 x10E6/uL
- HEMATOCRIT [2]: 36.1%
- HEMOGLOBIN [2]: 13.53 G/DL
- LEUKOCYTE COUNT [2]: 8.4 x10E3/uL
- LYMPHOCYTE [2]: 93.33%
- MEAN CORPUSCULAR HEMOGLOBIN [2]: 24.37 pg
- MEAN CORPUSCULAR HEMOGLOBIN CONCENTRATION [2]: 37.53 G/DL
- MEAN CORPUSCULAR VOLUME [2]: 65.03 fL
- MONOCYTE [2]: 0%
- NEUTROPHIL [2]: 5.33%
- NUCLEATED RED BLOOD CELLS [2]: 0 /100WBC
- PLATELET COUNT [2]: 1160 x10E3/uL
- ALANINE AMINOTRANSFERASE [2]: 48.33 u/L
- ALBUMIN [2]: 4.4 G/DL
- ALKALINE PHOSPHATASE [2]: 429.67 u/L
- ASPARTATE AMINOTRANSFERASE [2]: 75.33 u/L
- BLOOD UREA NITROGEN [2]: 15 mg/dL
- CARBON DIOXIDE [2]: 27.33 mmol/L
- CHLORIDE [2]: 102.33 MEQ/L
- CHOLESTEROL [2]: 63.33 mg/dL
- CREATINE PHOSPHOKINASE [2]: 205 u/L
- CREATININE [2]: 0.16 mg/dL
- GLUCOSE [2]: 151.67 mg/dL
- LACTATE DEHYDROGENASE [2]: 111.33 u/L
- LIPASE [2]: 8.33 u/L
- PHOSPHORUS [2]: 12.33 mg/dL
- POTASSIUM [2]: 5.99 MEQ/L
- SODIUM [2]: 148.33 MEQ/L
- TOTAL BILIRUBIN [2]: 0.3 mg/dL
- TOTAL PROTEIN [2]: 6.2 G/DL
- URIC ACID [2]: 0.93 mg/dL

Compound: COc1ccccc1OCC(O)COC(N)=O (configuration not stated) [METHOCARBAMOL]
- ABSOLUTE BASOPHIL [3]: 0 CELLS/uL
- ABSOLUTE EOSINOPHIL [3]: 171.33 CELLS/uL
- ABSOLUTE LYMPHOCYTE [3]: 13776.5 CELLS/uL
- ABSOLUTE MONOCYTE [3]: 180.83 CELLS/uL
- ABSOLUTE SEGMENTED NEUTROPHIL [3]: 1121.33 CELLS/uL
- BASOPHIL [3]: 0%
- EOSINOPHIL [3]: 1%
- ERYTHROCYTE COUNT [3]: 5.56 x10E6/uL
- HEMATOCRIT [3]: 34.75%
- HEMOGLOBIN [3]: 13.68 G/DL
- LEUKOCYTE COUNT [3]: 15.25 x10E3/uL
- LYMPHOCYTE [3]: 90.17%
- MEAN CORPUSCULAR HEMOGLOBIN [3]: 24.6 pg
- MEAN CORPUSCULAR HEMOGLOBIN CONCENTRATION [3]: 39.4 G/DL
- MEAN CORPUSCULAR VOLUME [3]: 62.48 fL
- MONOCYTE [3]: 1.17%
- NEUTROPHIL [3]: 7.67%
- NUCLEATED RED BLOOD CELLS [3]: 0 /100WBC
- PLATELET COUNT [3]: 1342 x10E3/uL
- ALANINE AMINOTRANSFERASE [3]: 49.67 u/L
- ALBUMIN [3]: 4.15 G/DL
- ALKALINE PHOSPHATASE [3]: 346.83 u/L
- ASPARTATE AMINOTRANSFERASE [3]: 108.17 u/L
- BLOOD UREA NITROGEN [3]: 17.33 mg/dL
- CARBON DIOXIDE [3]: 25 mmol/L
- CHLORIDE [3]: 100.83 MEQ/L
- CHOLESTEROL [3]: 66.83 mg/dL
- CREATINE PHOSPHOKINASE [3]: 788 u/L
- CREATININE [3]: 0.18 mg/dL
- GLUCOSE [3]: 151.67 mg/dL
- LACTATE DEHYDROGENASE [3]: 982.5 u/L
- LIPASE [3]: 10.33 u/L
- PHOSPHORUS [3]: 11.23 mg/dL
- POTASSIUM [3]: 6.37 MEQ/L
- SODIUM [3]: 141.02 MEQ/L
- TOTAL BILIRUBIN [3]: 0.18 mg/dL
- TOTAL PROTEIN [3]: 5.9 G/DL
- URIC ACID [3]: 1.8 mg/dL
- ABSOLUTE BASOPHIL [4]: 0 CELLS/uL
- ABSOLUTE EOSINOPHIL [4]: 69 CELLS/uL
- ABSOLUTE LYMPHOCYTE [4]: 13632.83 CELLS/uL
- ABSOLUTE MONOCYTE [4]: 139.83 CELLS/uL
- ABSOLUTE SEGMENTED NEUTROPHIL [4]: 1225 CELLS/uL
- BASOPHIL [4]: 0%
- EOSINOPHIL [4]: 0.33%
- ERYTHROCYTE COUNT [4]: 5.52 x10E6/uL
- HEMATOCRIT [4]: 33.98%
- HEMOGLOBIN [4]: 13.22 G/DL
- LEUKOCYTE COUNT [4]: 15.07 x10E3/uL
- LYMPHOCYTE [4]: 90.83%
- MEAN CORPUSCULAR HEMOGLOBIN [4]: 23.95 pg
- MEAN CORPUSCULAR HEMOGLOBIN CONCENTRATION [4]: 38.9 G/DL
- MEAN CORPUSCULAR VOLUME [4]: 61.53 fL
- MONOCYTE [4]: 0.83%
- NEUTROPHIL [4]: 8%
- NUCLEATED RED BLOOD CELLS [4]: 0 /100WBC
- PLATELET COUNT [4]: 1196 x10E3/uL
- ALANINE AMINOTRANSFERASE [4]: 49.17 u/L
- ALBUMIN [4]: 4.2 G/DL
- ALKALINE PHOSPHATASE [4]: 352.33 u/L
- ASPARTATE AMINOTRANSFERASE [4]: 89.67 u/L
- BLOOD UREA NITROGEN [4]: 18 mg/dL
- CARBON DIOXIDE [4]: 27.67 mmol/L
- CHLORIDE [4]: 101 MEQ/L
- CHOLESTEROL [4]: 72.83 mg/dL
- CREATINE PHOSPHOKINASE [4]: 417.5 u/L
- CREATININE [4]: 0.18 mg/dL
- GLUCOSE [4]: 150.5 mg/dL
- LACTATE DEHYDROGENASE [4]: 517.33 u/L
- LIPASE [4]: 9 u/L
- PHOSPHORUS [4]: 11.87 mg/dL
- POTASSIUM [4]: 6.57 MEQ/L
- SODIUM [4]: 143.62 MEQ/L
- TOTAL BILIRUBIN [4]: 0.2 mg/dL
- TOTAL PROTEIN [4]: 6.08 G/DL
- URIC ACID [4]: 1.45 mg/dL
